Results taken from the SangsterLogP compilation.

First: CCCCCOC(=O)C(C)c1ccc2cc(OC)ccc2c1 (centres undefined)
Second: CCCCCCOC(=O)C(C)c1ccc2cc(OC)ccc2c1 (centres undefined)
The logP of the first is lower: 6.02 for the first, 6.54 for the second.

Compared with `COc1ccc2cc(C(C)C(=O)OCC=C(C)CCC=C(C)C)ccc2c1` (centres undefined), `CCC=CCCOC(=O)C(C)c1ccc2cc(OC)ccc2c1` (centres undefined) is lower in logP: 7.77 for the first, 6.21 for the second.

Going from `CCCCCCCCOC(=O)C(C)c1ccc2cc(OC)ccc2c1` (centres undefined) to `CCCCCCCOC(=O)C(C)c1ccc2cc(OC)ccc2c1` (centres undefined), the logP falls from 7.66 to 7.21.

First: COc1ccc2cc(C(C)C(=O)Oc3ccccc3)ccc2c1 (centres undefined)
Second: COC(=O)C(C)c1ccc2cc(OC)ccc2c1 (centres undefined)
The logP of the first is higher: 5.17 for the first, 4.6 for the second.

First: COc1ccc2cc(C(C)C(=O)OC3CCCCC3=O)ccc2c1 (centres undefined)
Second: COc1ccc2cc(C(C)C(=O)OC3CCCCC3)ccc2c1 (centres undefined)
The logP of the first is lower: 4.96 for the first, 5.82 for the second.

First: CCOC(=O)C(C)c1ccc2cc(OC)ccc2c1 (centres undefined)
Second: CCCOC(=O)C(C)c1ccc2cc(OC)ccc2c1 (centres undefined)
The logP of the first is lower: 4.78 for the first, 5.34 for the second.

Compared with `CC=CC=CCOC(=O)C(C)c1ccc2cc(OC)ccc2c1` (centres undefined), `COc1ccc2cc(C(C)C(=O)OCC(C)=O)ccc2c1` (centres undefined) is lower in logP: 6.31 for the first, 4.06 for the second.

Going from `COc1ccc2cc(C(C)C(=O)OC3CCCCC3O)ccc2c1` (centres undefined) to `COc1ccc2cc(C(C)C(=O)OC3COC4C(O)COC34)ccc2c1` (centres undefined), the logP falls from 4.71 to 3.14.

Compared with `COc1ccc2cc(C(C)C(=O)OCCO)ccc2c1` (centres undefined), `COc1ccc2cc(C(C)C(=O)OCCCO)ccc2c1` (centres undefined) is higher in logP: 3.05 for the first, 3.73 for the second.

Going from `COc1ccc2cc(C(C)C(=O)OCCCCCCO)ccc2c1` (centres undefined) to `CCCCOC(=O)C(C)c1ccc2cc(OC)ccc2c1` (centres undefined), the logP rises from 4.74 to 5.81.

First: COc1ccc2cc(C(C)C(=O)OCCOCCO)ccc2c1 (centres undefined)
Second: CCC#CCCOC(=O)C(C)c1ccc2cc(OC)ccc2c1 (centres undefined)
The logP of the first is lower: 3.79 for the first, 5.91 for the second.

Going from `COc1ccc2cc(C(C)C(=O)OC(C)C)ccc2c1` (centres undefined) to `COc1ccc2cc(C(C)C(=O)OCC(C)O)ccc2c1` (centres undefined), the logP falls from 4.98 to 3.74.
